Holding throughout (assay type): in vivo
Data set [1] has as its system aged dogs. The data set can be described thus: CP-118,954 study of DNMP performance, counter-balanced within-subject design.
Data set [2] relates to senior beagle dogs. Nature of the data set: relearning of the delayed-non-matching-to-position task (DNMP). Conditions: N=4. Here is the method: Five male and two female senior beagle dogs (M+S.D.=14.60+1.46 years) served as subjects (Table 1). Dogs were divided into two groups matched on their most recent DNMP performance; the first group (N=4) was administered phenserine (0.5 mg/kg) via capsule in a meatball and the second group (N=3) was administered a placebo meatball. Dogs received a five-day wash-in period prior to study initiation and were administered their respective treatments 1-hour prior to DNMP testing. Dogs were trained initially on the DNMP using a 5-s delay until a 2-stage criterion was passed. The first stage required animals to achieve a score of 11/12 on one day, a score of 10/12 over two consecutive days, or a score of 29/36 over three consecutive days. Subsequently, the dogs were required to achieve a score of 26/36 over the following three days to pass the second stage.

The test system of data set [3] is middle-aged beagle dogs. The data set can be described thus: delayed-non-matching-to-sample task (DNMS), recognition memory. Conditions: 0.5 mg/kg dose. Here is the method:
The present study assessed the effects of a 0.5 mg/kg dose of phenserine in middle-aged dogs tested on a recognition memory task.
Six middle-aged beagle dogs (4 female and 2 male) served as subjects. Dogs were divided equally into 2 groups matched for performance on their most recent 10 sessions on the delayed-non-matching-to-sample task (DNMS; (Callahan et al., 2000). One group was administered phenserine (0.5 mg/kg) via capsule in a meatball and the second group served as control. Animals were tested one-hour after drug administration and were tested on a total of 20 test sessions.
To examine the effects of phenserine on DNMS performance, mean performance over groups of five test sessions was analyzed (see e.g., FIG. 1).

Data set [4] relates to senior beagle dogs. The data set can be described thus: variable-delay DNMP under scopolamine / saline challenge. Conditions: scopolamine 15 μg/kg SC, 20-s (p=0.038) and 80-s (p=0.082) delays. Here is the method: Following relearning of the DNMP, dogs were tested on a variable-delay paradigm in which delays of 20 and 80 s were used. The delays occurred equally among the trials in a daily test session. We have previously shown that the 15-μg/kg dose selectively impairs DNMP performance (Araujo et al., 2004a). The dogs were first divided into two groups, one that was administered phenserine and the other received a placebo control. All subjects were given a 5-day stabilization period and then tested under scopolamine (15 μg/kg, SC) and saline (SC), administered 45 min prior to testing, over two test days separated by a treatment washout day. One day following the second treatment day, animals were removed from phenserine or placebo treatments and re-tested on the stabilization days and under scopolamine and saline treatment as indicated above.

SMILES strings stand for the structures.

Consider `O=C1Cc2cc3c(CCC4CCN(Cc5ccccc5)CC4)noc3cc2N1` [CP-118,954], for which, in data set [1], the DNMP performance result is reported as “no significant improvement”. For the compound `CN1CC[C@@]2(C)c3cc(OC(=O)Nc4ccccc4)ccc3N(C)[C@@H]12` [phenserine, (−)-phenylcarbamoyleseroline], the “mean errors to relearn the DNMP (M+SEM)” value in data set [2] (0.5 mg/kg via capsule 1 hour prior to testing, 5-s delay, placebo 14.33+6.98) is recorded as 5.25+0.85 errors. The “fewer errors compared to the most previous relearning rates (M+SEM)” value in data set [2] (0.5 mg/kg, placebo group showed more errors (6.33+9.53)) was 5.00+4.51 errors. In addition, in data set [3], the adverse effects result is “No obvious adverse effects”.

For `CN1[C@@H]2C[C@@H](OC(=O)[C@H](CO)c3ccccc3)C[C@H]1[C@@H]1O[C@@H]12` [scopolamine], in data set [4], the “DNMP performance of the placebo group after treatment with scopolamine” value was “performance deficits”.

The record behind these values is patent publication US20070167509A1, “Use of phenserine and analogs to treat behavioral problems and improve trainability” (priority 2005, published 2007).
